# Read-outs that look alike come from different tables or passages of the source. Residues, ends and D or L forms follow the SMILES beside them.
# Legend:
# zebrafish embryos = format: in vivo; conditions: exposure from 6-7 hpf
# Procedure: To test HD5 (1-9) (SEQ ID No. 1) for toxicity and to assess its effect on embryonic development in zebrafish, embryos obtained from natural crosses of wildtype TE fish were used. After mating, embryos were incubated at 28° C. until 6 h postfertilization (hpf). Triplicates of five embryos each were then placed in wells of a 96-well plate containing 200 μl of different peptide concentrations. HD5 (1-9) (SEQ ID No. 1) dissolved in PBS was diluted in normal embryo medium (250 mg/L Instant Ocean salt, 1 mg/L methylene blue in reverse osmosis water adjusted to pH 7 with NaHCO3) (Muller et al., “Differential diffusivity of Nodal and Lefty underlies a reaction-diffusion patterning system”; Science 336 (6082):721-724, 2012). The concentrations tested were 25 μM, 75 μM, 125 μM and 250 μM, and the concentration of PBS solvent was adjusted for each control group. At peptide concentrations of 75 μM and above we observed granulae in some wells, which could represent peptide accumulations. As a control, embryos were additionally incubated in 25 μg/ml cycloheximide (C4859, Sigma-Aldrich). After 13 hpf, 24 hpf and 48 hpf a microscopic phenotype analysis was performed. For each time point embryos were automatically imaged using an ACQUIFER Imaging Machine. For the phenotype analysis at 48 hpf, the larvae were manually dechorionated and anaesthetized with 2% tricaine methane-sulfonate (A5040-25G, Sigma-Aldrich). Images were acquired on an Axio Zoom.V16 microscope (ZEISS).
# As a first test of HD5 (1-9) (SEQ ID No. 1) toxicity in vivo, as well as to elucidate potential effects of the peptide on embryonic development, experiments with zebrafish embryos were performed (He et al., 2014). Embryos were treated with HD5 (1-9) (SEQ ID No. 1) at concentrations of 25 μM, 75 μM, 125 μM and 250 μM starting at 6-7 h post fertilization (hpf), which is the time point recommended by pharmaceutical company-utilized assays to assess toxic effects of compounds on early embryonic development (Ball et al., 2014). Phenotypes were analyzed at 13.24 and 48 hpf (data not shown). […] Impaired development at 250 μM peptide exposure was also evident over the whole observation period, leading to the death of 11 embryos and 4 embryos having severe developmental delays by 48 hpf.
# [1] = system: HFF, ARPE-19 and macrophages; experiment: Impedance measurement (xCELLigence) toxicity study; format: cell-based, human; conditions: ARPE-19, macrophages, 72 h impedance
# Source text: The “xCELLigence” system (ACEA Biosciences Inc.) was used for a more detailed toxicity study. The principle is based on a measurement of the electrical resistance caused by adhesive cells on the bottom of a 96-well plate equipped with microelectrodes. Cell proliferation causes an increase in resistance due to the partial isolation of the electrodes, while events leading to altered cell morphology or cell detachment lead to reduced resistance (Diemert et al. “Impedance measurement for real time detection of neuronal cell death”, J Neurosci Methods, 203(1):69-77, 2012)). The experiments were performed with HFF, ARPE-19 and macrophages, the appropriate cell numbers were determined in a preliminary experiment without treatment with peptides.
# On the first day 10 000 HFF or ARPE-19 or 20 000 macrophages per well were sown. […] Then a blank value was measured and the cells were added in corresponding numbers in 150 μl medium each, the final volume was 200 μl per well. The plate was placed in the “xCELLigence” and the impedance was measured at 37° C. and 5% CO2 over 24 h every 30 min. […] Afterwards, the resistance at the bottom of the 96-well plate was measured every 30 min for a further 72 h. The resistance of the tritone was measured with a positive control of 10% tritone. From the measured impedance values, the RTCA software calculated the so-called cell index according to the following formula: […]
# [2] = system: TB40-BACKL7-UL32EGFP-UL 100mCherry; experiment: Attachment of fluorescently tagged viral particles to HFF; format: cell-based, Human Cytomegalovirus; conditions: HFF preincubated with peptide 1 h, 6 h after infection, data not shown
# Procedure: In additional experiments, […] (encoding for pp150) was GFP (green fluorescence protein)-tagged, UL100 (encoding for gM) was mCherry-tagged. This allowed discrimination between enveloped particles, which were EGFP and mCherry-positive and appeared yellow, and non-enveloped particles, which were only EGFP-positive and appeared green.
# HFF were preincubated with peptide in the corresponding concentration 1 h at 37° C. and then infected TB40-BACKL7-UL32EGFP-UL 100mCherry. After 6 h of incubation, cells were fixed and stained with DAPI.
structure (smiles),measurement,setting,value
"C[C@H](N)C(=O)N[C@H](C(=O)N[C@@H](CS)C(=O)N[C@@H](Cc1ccc(O)cc1)C(=O)N[C@@H](CS)C(=O)N[C@@H](CCCNC(=N)N)C(=O)N[C@H](C(=O)NCC(=O)N[C@@H](CCCNC(=N)N)C(=O)O)[C@@H](C)O)[C@@H](C)O [HD5 (1-9), ATCYCRTGR] (H-ATCYCRTGR-OH; N-terminus and C-terminus assumed)",embryonic development,zebrafish embryos; 25 μM or 75 μM,developed normally
same,embryonic development,zebrafish embryos; 125 μM,approximately half of the embryos having no alterations
same,death of embryos by 48 hpf,zebrafish embryos; 250 μM,11 embryos
same,embryo death by 13 hpf,zebrafish embryos; 250 μM,half of the embryos had died
same,embryos having severe developmental delays by 48 hpf,zebrafish embryos; 250 μM,4 embryos
same,concentration up to which no cytotoxicity is shown,[1],up to 150 μM
same,attachment of viral particles,[2],blocks the attachment of viral particles

# — US20220213156A1, “Peptides for use in therapy or prophylaxis of Herpesviridae-infections” (priority 2019, published 2022)
